Measurements from patent US6466814B1, “Method of magnetic resonance investigation” (Amersham Health AS, priority 1998, dated 2002).
Like-named read-outs stand apart in the source and are kept apart here.

Tests used:
[1] = T1-values for the 13C atom in human bloodplasma; format: physicochemical; details: 37° C., 7 T
From the text: (§1) T1-values for the ^13C atom in 1-^13C-2,2,2′,2′,2″,2″-hexadeuterotris(hydroxymethyl)nitromethane
(§2) T1-values for the ^13C atom in 2-^13C-2,2-bis(trideuteromethyl)-1,1,3,3-tetradeuteropropane-1,3-diol

[2] = 13C-signal enhancement after low-field pumping and dissolution (solution experiments); format: physicochemical; details: 20 mg solid in 3 ml deuterium oxide, 40° C., holding field 0.4 T
Protocol: A sample of solid 1-^13C-2,2,2′,2′,2″,2″-hexadeuterotris(hydroxymethyl)nitromethane was subjected to a magnetic field of 6.56 T at a temperature of 2.5 K for 10 minutes. The sample was then removed from the centre of the magnet to the stray field (7 mT) for a duration 1 s and then returned to the magnet. After another 10 minutes the process was repeated one more.
(§3) A sample of solid 1-^13C-2,2,2′,2′,2″,2″-hexadeuterotris(hydroxymethyl)nitromethane (20 mg) was subjected to the above-mentioned pumping procedure (see Examples 5-7) and then in less than 1 second moved to a holding field of 0.4 T where also a sample of deuterium oxide (3 ml) at a temperature of 40° C., stirred by nitrogen bubbling, was kept. […] The sample was inserted into the spectrometer and a ^13C-spectrum was recorded. […]
as §3, with “2-^13C-2,2-bis(trideuteromethyl)-1,1,3,3-tetradeuteropropane-1,3-diol” for “1-^13C-2,2,2′,2′,2″,2″-hexadeuterotris(hydroxymethyl)nitromethane”

[3] = T1-values for the 13C atom (water solution and solid); format: physicochemical; details: 7 T
From the text: as §1, §2

[4] = T1 in the blood after injection of the dissolved polarised agent; format: in vivo; details: 300 mg dissolved in 10 ml Ringers Solution, 37° C., pH 7.4, injected
Protocol: 300 mg of sterile Na2^13CO3 or NaH^13CO3 is placed inside a 10 ml plastic injection syringe. The gas inside the syringe is enriched with >20% […]. The syringe is placed inside a magnet (1-20 T) at a temperature of about 4 K (0.001-5 K) until thermodynamic equilibrium is reached.
The syringe is removed and transported to the subject located in the MRI magnet. 10 ml of sterile Ringers Solution (at 37° C., pH 7.4) is aspirated and injected at a rate of 10 ml/sec immediately after the high T1 agent has dissolved. 13C MRI is performed using a fast pulse sequence. T1 in the blood is about 20 s and the distribution of the agent is followed on the MR imager.

[5] = solid
From the text: Where Mmax is the magnetisation of the sample after complete relaxation at the final field.
This procedure can be repeated after the protons have repolarised again, successively building up the carbon polarisation until the spin-temperature of the two nuclei become the same. […] Generally fluorine relaxes even faster than protons and it would be possible to include a fluorine atom in the contrast agent molecule as an internal relaxation agent.
It is also possible to use quadrupolar nuclei for this process. […] The magnetic storage field must be large enough to avoid overlap of the resonances of the wanted nucleus and any rapidly relaxing quadrupolar nuclei. It is known that this phenomenon causes the rapid relaxation of frozen ^129Xe in a low field, when spin diffusion to the quadrupolar ^131Xe becomes efficient.

Structure (SMILES) | T1-value for the 13C atom [1] | Time until a clear solution was obtained [2] | T1-value for the 13C atom ([3]; H2O, air saturated, 37° C.) | T1-value for the 13C atom ([3]; H2O, degassed, 37° C.) | T1-value for the 13C atom ([3]; Solid, 2.5 K) | T1-value for the 13C atom ([3]; Solid, 20° C.) | T1 in the blood [4] | other results
[2H]C([2H])(O)[13C]([N+](=O)[O-])(C([2H])([2H])O)C([2H])([2H])O [1-^13C-2,2,2′,2′,2″,2″-hexadeuterotris(hydroxymethyl)nitromethane] | 60 s | less than 1 S | 95 s | 102 s | 198000 s | 1320 s | – | T1-value for the 13C atom ([3]; Solid, −30° C.): 2820 s
[2H]C([2H])([2H])[13C](C([2H])([2H])[2H])(C([2H])([2H])O)C([2H])([2H])O [2-^13C-2,2-bis(trideuteromethyl)-1,1,3,3-tetradeuteropropane-1,3-diol] | 96 s | less than 1 S | 133 s | 157 s | 162000 s | 237 s | – | –
O=[13C]([O-])[O-].[Na+].[Na+] [Na2^13CO3] | – | – | – | – | – | – | about 20 s | –
O=[13C]([O-])O.[Na+] [NaH^13CO3, sodium bicarbonate—^13C] | – | – | – | – | – | – | about 20 s | –
CC(=O)[O-].[Na+] [sodium acetate] | – | – | – | – | – | – | – | T1,0 (time constant for relaxation at no external magnetic field) ([5]; carbonyl carbon): about 5 seconds; T1 of the carbonyl carbon ([5]; at 7 T): 1700 s; T1 of the carbonyl carbon ([5]; room temperature): 1700 s; T1 of the protons ([5]; room temperature): 31 s; T1 of the sodium ions ([5]; room temperature): 1.7 s
